Publication PMC6770336, “Computationally Designed Peptides for Zika Virus Detection: An Incremental Construction Approach” (Biomolecules, 2019)

Legend:
[1] = test system: intact ZIKV particles; test: Direct ELISA vs. intact ZIKV particles; type: binding, Zika virus; conditions: for FPLR—Dynamic Range: direct ELISA, plates coated with 10-fold serial dilutions of intact ZIKV particles, biotinylated peptide 20 μM in PBS pH 7.4 (4G2 1 μg/mL in PBST), absorbance 450 nm; for FPLR—Dynamic Range / FPLR—maximum / FPLR—minimum: four parameters logistic fit; for FPLR—Dynamic Range / FPLR—C50 / LOD: n = 3; for Long-term stability: dose-response performance of the ELISA reproducible over time, stock 1 mM in 10 mM PBS pH 7.4 stored at −30° C; for FPLR—C50: four parameters logistic fit of delta absorbance vs log ZIKV concentration; for FPLR—C50 / FPLR—maximum / FPLR—minimum / LOD: peptide 20 μM in PBS (4G2 1 μg/mL in PBST); for LOD: interpolated from calibration curve, LOD = AvB + 3 × SDB
Protocol: Before biotin functionalization, peptides stock solution was reduced using Tris[2-carboxyethyl] phosphine hydrochloride (TCEP) disulfide reducing gel from ThermoFisher Scientific available online at: www.thermofisher.com (accessed on 15 April 2019) and after 1 h, the gel was removed using TCEP gel spin separation columns (ThermoFisher Scientific). Then, two-fold molar excess of EZ-Link™ Maleimide-PEG2-Biotin (ThermoFisher Scientific) was added to purified peptide solution and incubated for 1 h. […] Therefore, no further separation was carried out.
(§1) To optimize all parameters of the direct ELISA protocol, Pierce 96-well polystyrene plates, (ThermoFisher Scientific) were coated overnight at 4° C with different concentrations of intact virus particles (ZIKV or DENV). The intact virus particles were diluted using 100 mM NaHCO3, pH 9.6, and aliquots of 100 μL were dispensed into each well of the plate using a multichannel pipette. This buffer pH assured a strong hydrophobic binding interaction between polystyrene and virus particles.
The antibody 4G2 hybridoma mouse IgG2a was used as the reference and employed in combination with an anti-mouse IgG conjugated to HRP.
(§2) After coating the plates overnight, the intact virus particles were removed by washing five times with the washing buffer (PBST) 10 mM PBS pH 7.4, 0.1% Tween-20, using an automated plate washer (MultiWash+, Molecular Devices, Sunnyvale, CA). Then, the plates were blocked with 200 μL of blocking buffers while shaking at 300 rpm at room temperature. The blocking buffers used were Pierce™ protein-free (PBS) blocking buffer (PF), Blocker™ BLOTTO (BT) in TBS, SuperBlock^TM blocking buffer, Blocker™ BSA (1X) in PBS all from ThermoFisher Scientific. After 2 h, the blocking buffers were removed using the same washing procedure mentioned above. Hundred microliter aliquots of several dilutions of peptides biotinylated in 10 mM PBS pH 7.4 were placed in each well and incubated for 2 h while shaking at 300 rpm at room temperature. After the incubation, the unreacted peptides were removed by using the plate washer with the same settings. Then, 100 μL-aliquots of streptavidin-HRP (ThermoFisher Scientific) at a concentration of 20 ng/mL were added into each well and incubated for 30 min at room temperature without shaking. After the incubation, excess streptavidin-HRP was removed and the wells were washed with the plate washer five times using the washing buffer. Finally, 100 μL-aliquots of the Ultra TMB-ELISA substrate solution (ThermoFisher Scientific) were added and after 10 min, the reaction was stopped by adding 100 μL aliquots of the TMB stop solution from SeraCare, available online at; https://www.seracare.com (accessed on 1 abril 2019). The […] (450 nm) was read using a microplate reader (Clariostar Optima; BMG Labtech, Ortenberg, Germany).
The corresponding blank signals in triplicates were obtained by using all reagents without peptides. They were subtracted to the average absorbance values for triplicate wells of each test.
The optimal concentration of peptide was determined by coating clear 96-well plates with a solution of 10^7 copies/mL of intact ZIKV particles. Concentrations of peptide, from 0.1 to 50 μM, diluted in 10 mM PBS pH 7.4 were added to wells of the microplates coated with intact ZIKV particles. […] Thus, a peptide concentration of 20 μM was used to estimate the linear range and the limit of detection (LOD) of the assay by using 10-fold serial dilutions of intact ZIKV particles from 10^1 to 10^9 copies/mL.
The regression parameters of the assay are reported in Table 4 and the sigmoidal trend in Figure 6. The LOD was interpolated from the calibration curves using LOD = AvB + 3 × SDB, where AvB and SDB were the average (Av) and the standard deviation (SD) of the blank measurements, respectively.

[2] = test system: DENV-2 intact virus particles; test: Direct ELISA cross-reactivity, DENV-2; type: binding; conditions: plates coated with 10^6 copies/mL of intact virus particles; peptide 20 μM
Protocol: as §1
(§3) After coating the plates overnight, the intact virus particles were removed by washing five times with the washing buffer (PBST) 10 mM PBS pH 7.4, 0.1% Tween-20, using an automated plate washer (MultiWash+, Molecular Devices, Sunnyvale, CA). Then, the plates were blocked with 200 μL of blocking buffers while shaking at 300 rpm at room temperature. The blocking buffers used were Pierce™ protein-free (PBS) blocking buffer (PF), Blocker™ BLOTTO (BT) in TBS, SuperBlock^TM blocking buffer, Blocker™ BSA (1X) in PBS all from ThermoFisher Scientific. After 2 h, the blocking buffers were removed using the same washing procedure mentioned above. […] The […] (450 nm) was read using a microplate reader (Clariostar Optima; BMG Labtech, Ortenberg, Germany). […]

[3] = test system: intact ZIKV particles; test: Urine and serum matrix effect on the direct ELISA signal; type: binding, Zika virus; conditions: peptide 20 μM; for signal decrease in serum: serum diluted 1:10; for signal decrease in serum / signal decrease in urine: 10 mM PBS pH 7.4; for signal decrease in urine: urine diluted 1:1
Protocol: as §2
Usually, the presence of ZIKV in affected bodies is detected in biological fluids. Therefore, the analytical sensitivity of the selected peptides was tested in two biological matrices, namely, urine and serum. The matrix effect was investigated to understand how real biological fluids could modify the binding efficiency of the peptides.
Figure 8 reports the ELISA data using solutions of peptides with or without the urine and serum obtained, coating clear 96-well plates with 10^6 and 10^7 copies/mL of intact ZIKV particles. Serum and urine were 1:10 and 1:1 diluted, respectively, with a concentrated peptide PBS solution to obtain a peptide final concentration of 20 μM (10 mM PBS, pH 7.4). A coating concentration of 10^5 was also tested, but no signal was observed after the addition of the biological matrix.

[4] = test system: DENV-1 intact virus particles; test: Direct ELISA cross-reactivity, DENV-1; type: binding; conditions: plates coated with 10^6 copies/mL of intact virus particles; peptide 20 μM
Protocol: as §1, §3

[5] = 10^6 copies/mL of intact ZIKV particles
[6] = 10^7 copies/mL of intact ZIKV particles

Row | Substance | FPLR—Dynamic Range [1] | Long-term stability [1] | FPLR—C50 [1] | FPLR—maximum [1] | FPLR—minimum [1] | LOD [1] | DENV/ZIKV signal ratio, DENV-2 [2] | signal decrease in serum [3, 5] | signal decrease in serum [3, 6] | signal decrease in urine [3, 5] | signal decrease in urine [3, 6] | DENV/ZIKV signal ratio, DENV-1 [4] | detection limit in urine and serum ([3]; serum 1:10 and urine 1:1)
1 | C-SWPGQ [P1, experimental peptide with N-terminal cysteine, labelled with maleimide-PEG2-biotin for ELISA] | 7-8 log[ZIKV], copies/mL | >1 Month | 6.6 log[ZIKV], copies/mL | 0.140 Absorbance (450 nm) | 0.001 Absorbance (450 nm) | 6.8 log[ZIKV], copies/mL | – | – | – | – | – | – | –
2 | C-LRGHA [P2, experimental peptide with N-terminal cysteine, labelled with maleimide-PEG2-biotin for ELISA] | 5-7 log[ZIKV], copies/mL | >1 Month | 6.1 log[ZIKV], copies/mL | 0.928 Absorbance (450 nm) | 0.036 Absorbance (450 nm) | 4.7 log[ZIKV], copies/mL | 34% | 77% | 72% | 72% | 85% | – | –
3 | C-KRNATP [X1, experimental peptide with N-terminal cysteine, labelled with maleimide-PEG2-biotin for ELISA] | 5-7 log[ZIKV], copies/mL | >1 Month | 6.1 log[ZIKV], copies/mL | 0.973 Absorbance (450 nm) | 0.026 Absorbance (450 nm) | 4.8 log[ZIKV], copies/mL | 49% | 95% | 89% | 95% | 82% | 32% | 10^7 copies/mL
4 | C-GSKANNG [H1, experimental peptide with N-terminal cysteine, labelled with maleimide-PEG2-biotin for ELISA] | 5-7 log[ZIKV], copies/mL | >1 Month | 6.2 log[ZIKV], copies/mL | 0.826 Absorbance (450 nm) | 0.036 Absorbance (450 nm) | 4.5 log[ZIKV], copies/mL | – | 82% | 73% | 53% | 45% | up to 42% | –
5 | C-KTDAYS [X2, experimental peptide with N-terminal cysteine, labelled with maleimide-PEG2-biotin for ELISA] | 6-8 log[ZIKV], copies/mL | >1 Month | 6.2 log[ZIKV], copies/mL | 0.915 Absorbance (450 nm) | 0.007 Absorbance (450 nm) | 5.8 log[ZIKV], copies/mL | – | – | – | – | – | – | –
6 | C-SHRNATA [H2, experimental peptide with N-terminal cysteine, labelled with maleimide-PEG2-biotin for ELISA] | 6-8 log[ZIKV], copies/mL | >1 Month | 6.5 log[ZIKV], copies/mL | 0.683 Absorbance (450 nm) | 0.014 Absorbance (450 nm) | 5.7 log[ZIKV], copies/mL | – | – | – | – | – | – | –
